Experimental data from patent publication US11957661B2, “JAK1 pathway inhibitors for the treatment of vitiligo” (Incyte Corporation, priority 2020, dated 2024).

What was measured:
human JAK1 = human JAK1 (Homo sapiens, UniProt P23458); assay: In vitro JAK kinase assay (HTRF, Example A); type: biochemical; settings: 1 mM ATP
Method: (§1) The catalytic activity of JAK1, JAK2 or JAK3 was assayed by measuring the phosphorylation of a biotinylated peptide. The phosphorylated peptide was detected by homogenous time resolved fluorescence (HTRF). […] Reactions were carried out at room temperature for 1 hour and then stopped with 20 μL 45 mM EDTA, 300 nM SA-APC, 6 nM Eu-Py20 in assay buffer (Perkin Elmer, Boston, MA). Binding to the Europium labeled antibody took place for 40 minutes and HTRF signal was measured on a Fusion plate reader (Perkin Elmer, Boston, MA).

human JAK2 = human JAK2 (Homo sapiens (Human), UniProt O60674); assay: In vitro JAK kinase assay (HTRF, Example A); type: biochemical; settings: JAK2/JAK1 IC50 ratio, 1 mM ATP
Sequence of human JAK2 (O60674 828-1132): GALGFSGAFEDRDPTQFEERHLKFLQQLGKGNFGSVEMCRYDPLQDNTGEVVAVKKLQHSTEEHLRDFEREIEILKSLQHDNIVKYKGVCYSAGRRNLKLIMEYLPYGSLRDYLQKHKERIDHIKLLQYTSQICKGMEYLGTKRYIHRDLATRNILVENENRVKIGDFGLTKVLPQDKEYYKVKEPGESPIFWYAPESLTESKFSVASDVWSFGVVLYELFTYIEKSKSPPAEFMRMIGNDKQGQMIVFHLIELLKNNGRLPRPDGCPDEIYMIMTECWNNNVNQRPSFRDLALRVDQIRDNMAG
Method: as §1

Row | IC50 (human JAK1) [nM] | JAK2/JAK1 (human JAK2) | Compound
1 | < 10 | >10 | N#CC[C@]1(n2cc(-c3ncnc4[nH]ccc34)cn2)C[C@H](N2CCN(C(=O)c3ccnc(C(F)(F)F)n3)CC2)C1 [Compound 10, [trans-1-[4-(7H-pyrrolo[2,3-d]pyrimidin-4-yl)-1H-pyrazol-1-yl]-3-(4-{[2-(trifluoromethyl)pyrimidin-4-yl]carbonyl}piperazin-1-yl)cyclobutyl]acetonitrile]
2 | < 10 | >10 | N#CCC1(n2cc(-c3ncnc4[nH]ccc34)cn2)CN(C2CCN(C(=O)Nc3ccc(F)cc3C(F)(F)F)CC2)C1 [Compound 2, 4-{3-(Cyanomethyl)-3-[4-(7H-pyrrolo[2,3-d]pyrimidin-4-yl)-1H-pyrazol-1-yl]azetidin-1-yl}-N-[4-fluoro-2-(trifluoromethyl)phenyl]pipe-ridine-1-carboxamide]
3 | < 10 | >10 | N#CCC1(n2cc(-c3ncnc4[nH]ccc34)cn2)CN(C2CCN(C(=O)c3ccnc(C(F)(F)F)n3)CC2)C1 [Compound 3, [3-[4-(7H-pyrrolo[2,3-d]pyrimidin-4-yl)-1H-pyrazol-1-yl]-1-(1-{[2-(trifluoromethyl)pyrimidin-4-yl]carbonyl}piperidin-4-yl)azetidin-3-yl]acetonitrile]

More lines, now with the values behind:

Row | Compound | IC50 (human JAK1) [nM] | JAK2/JAK1 (human JAK2)
4 | CC(C)(O)c1cc(O[C@H]2CC[C@@H](N3CC(CC#N)(n4cc(-c5ncnc6[nH]ccc56)cn4)C3)CC2)nc(C(F)(F)F)c1 [Compound 20, {1-(cis-4-{[4-(1-hydroxy-1-methylethyl)-6-(trifluoromethyl)pyridin-2-yl]oxy}cyclohexyl)-3-[4-(7H-pyrrolo[2,3-d]pyrimidin-4-yl)-1H-pyrazol-1-yl]azetidin-3-yl}acetonitrile] | < 10 | >10
5 | N#CC[C@]1(n2cc(-c3ncnc4[nH]ccc34)cn2)C[C@H](N2CCC(Oc3cc(CN4CCC[C@@H]4CO)cc(C(F)(F)F)n3)CC2)C1 [Compound 13, {trans-3-(4-{[4-{[(2R)-2-(hydroxymethyl)pyrrolidin-1-yl]methyl}-6-(trifluoromethyl)pyridin-2-yl]oxy}piperidin-1-yl)-1-[4-(7H-pyrrolo[2,3-d]pyrimidin-4-yl)-1H-pyrazol-1-yl]cyclobutyl}acetonitrile] | < 10 | >10
6 | CCNCc1cc(O[C@H]2CC[C@@H](N3CC(CC#N)(n4cc(-c5ncnc6[nH]ccc56)cn4)C3)CC2)nc(C(F)(F)F)c1 [Compound 19, {1-(cis-4-{[4-[(ethylamino)methyl]-6-(trifluoromethyl)pyridin-2-yl]oxy}cyclohexyl)-3-[4-(7H-pyrrolo[2,3-d]pyrimidin-4-yl)-1H-pyrazol-1-yl]azetidin-3-yl}acetonitrile] | < 10 | >10
7 | N#CCC(CN1CCN(C(=O)c2ccc(C#N)cc2F)CC1)n1cc(-c2ncnc3[nH]ccc23)cn1 (stereo not drawn) [Compound 8, 4-[(4-{3-cyano-2-[4-(7H-pyrrolo[2,3-d]pyrimidin-4-yl)-1H-pyrazol-1-yl]propyl}piperazin-1-yl)carbonyl]-3-fluorobenzonitrile] | < 10 | >10
8 | N#CCC1(n2cc(-c3ncnc4[nH]ccc34)cn2)CN([C@H]2CC[C@@H](Oc3cc(CCO)nc(C(F)(F)F)n3)CC2)C1 [Compound 18, {1-(cis-4-{[6-(2-hydroxyethyl)-2-(trifluoromethyl)pyrimidin-4-yl]oxy}cyclohexyl)-3-[4-(7H-pyrrolo[2,3-d]pyrimidin-4-yl)-1H-pyrazol-1-yl]azetidin-3-yl}acetonitrile] | < 10 | >10
9 | N#CC[C@]1(n2cc(-c3ncnc4[nH]ccc34)cn2)C[C@H](N2CCC(Oc3cc(CN4CCC[C@H]4CO)cc(C(F)(F)F)n3)CC2)C1 [Compound 12, {trans-3-(4-{[4-{[(2S)-2-(hydroxymethyl)pyrrolidin-1-yl]methyl}-6-(trifluoromethyl)pyridin-2-yl]oxy}piperidin-1-yl)-1-[4-(7H-pyrrolo[2,3-d]pyrimidin-4-yl)-1H-pyrazol-1-yl]cyclobutyl}acetonitrile] | < 10 | >10
